The values below come from paper PMC7034072, “Discovery of small molecule inhibitors of Leishmania braziliensis Hsp90 chaperone” (Journal of Enzyme Inhibition and Medicinal Chemistry, 2020).

Some results are limits rather than exact numbers.

In general, IC50 refers to the concentration that gives 50% inhibition. In general, ΔTm refers to the change in melting temperature against a reference sample.

Assay [1] concerns promastigote form of L. braziliensis. The experiment in a line: Cell viability assay (MTT/PMS), single concentration. It is filed as cell-based. As to conditions: L. braziliensis promastigotes; for Cell viability / reduced cell viability: 200 μM/well; for Cell viability: MTT/PMS, Yes = leishmanicidal activity; for reduced cell viability: after 72 h. As for the experimental part: The leishmanicidal activity of the compounds was tested in vitro against the promastigote form of L. braziliensis applying 200 μM/well, (with a total of 0.5% DMSO) into 90 μL of culture. The concentration of L. braziliensis (MHOM/BR/1973/M2269) was adjusted to 10^7 cells/mL. Amphotericin (100 μM/well) was used as positive control, and 0.5% DMSO as negative control.
The plates were incubated at room temperature (RT) for 72 h. After this period, the viability of the promastigotes was verified via MTT (3–(4, 5-Dimethylthiazol-2-yl)-2, 5-Diphenyltetrazolium Bromide) colorimetric assay. MTT/PMS 11.1 μL/well solution (MTT = 5 mg/mL; Phenazine methosulfate-PMS = 0.22 mg/mL) was added, and the plate was incubated at RT for 4 h, at 150 RPM, protected from light. Formazan crystals were then solubilised by adding 100 μL/well of a solubilisation solution containing 7% SDS, 10 mM HCl and 30% DMSO. The mixture was incubated at RT for 90 min at 150 RPM protected from light. Wells containing the medium and the compounds or DMSO without MTT were used as blank controls. The absorbance was quantified in a plate reader (Biotek Synergy HT) at 570 nm.
The cell viability percentages were calculated by the following equation: (1) Cell viability %= AT−AB/AU−AB ×100 where AT was an averaged absorbance from treated samples, AB blank absorbance and AU was an averaged absorbance from negative control.

For assay [2], the system named is LbHsp90 and LbHsp90N recombinant proteins. The experiment in a line: Differential scanning fluorimetry (thermal shift assay). As to conditions: DSF; for Thermal shift: inclusion criterion Tm variation greater or equal to ± 2 °C in LbHsp90 or LbHsp90N, Yes/No. In kind it is binding, L. braziliensis. On the procedure:
The interaction of Hsp90 proteins with different compounds was monitored through the melting temperature (Tm) of each protein in the presence of a fixed concentration of the target compound by differential scanning fluorimetry (DSF) also referred as thermal shift assay. A final concentration of 10 µM of dimeric LbHsp90 and 20 µM of monomeric LbHsp90N in 40 mM Hepes buffer (pH 7.5) containing 100 mM KCl were used. The DMSO concentration in each sample was fixed at 2.5% (v/v). Prior to the readings, the samples were incubated for 30 min on ice. The fluorophore Sypro Orange (Life Technologies) was used as fluorescent probe. The experiments were performed at a thermocycler CFX96 Touch Real Time PCR Detection System (BioRad) and the data were analysed using the CFX Manager software (BioRad). As positive controls, 100 µM of GA and Radicicol (RDC) were used.

Assay [3] relates to promastigote forms of L. braziliensis. The experiment in a line: In vitro IC50 determination (leishmanicidal activity, MTT/PMS). It is filed as cell-based. As to conditions: promastigotes, 72 h, RT. As for the experimental part:
Amphotericin 100 μM/well and 0.5% DMSO were used as positive and negative control, respectively. The plates were incubated at RT for 72 h. After this, the viability of the promastigotes was verified by MTT/PMS colorimetric assay, as described above. In vitro leishmanicidal activity, expressed as IC50, was determined using GraphPad Prism 5 software according to the following equation: (2) y= Amin + Amax−Amin/1+10^logIC50 −x*Hillslope where Amin and Amax are, respectively, the minimum and maximum activities obtained, x is the ligand concentration and Hill Slope is the parameter that describes the steepness of the curve.
The selectivity index parameter was obtained by the ratio of compound IC50 against mammalian cells and compound IC50 against promastigote cells.

Assay [4] relates to Balb-c 3T3 clone A31 mouse fibroblasts. The experiment in a line: Cytotoxic assay (MTT). As to conditions: Balb-c 3T3 mouse fibroblasts, 72 h, 37 °C. In kind it is cell-based. On the procedure:
Compounds cytotoxicity was evaluated in 100 μL of Balb-c 3T3 cone A31 mouse fibroblasts (10^5 cells/mL) into a 96-well plate, incubated for 24 h at 37 °C to become adhered. After this period, the medium was washed and 100 μL of each compound was added to the culture medium (concentration ranging from 1 to 200 μM/well, with a total of 0.5% DMSO) in quadruplicate. Rapamycin was used as a positive control, and 0.5% DMSO was used as negative control. The plates were incubated for 72 h at 37 °C. After this, the viability of Balb-c 3T3 cells was evaluated by MTT colorimetric assay, as described previously.

For another assay, the target named is T1, hHsp90βN (Homo sapiens, UniProt P08238).
T1 construct: N-terminal domain construct (Hsp90βN – residues 1–223); His-tag (cleaved yes); made in house; host or cells: Escherichia coli BL21(DE3)
T1 sequence (P08238 1-223): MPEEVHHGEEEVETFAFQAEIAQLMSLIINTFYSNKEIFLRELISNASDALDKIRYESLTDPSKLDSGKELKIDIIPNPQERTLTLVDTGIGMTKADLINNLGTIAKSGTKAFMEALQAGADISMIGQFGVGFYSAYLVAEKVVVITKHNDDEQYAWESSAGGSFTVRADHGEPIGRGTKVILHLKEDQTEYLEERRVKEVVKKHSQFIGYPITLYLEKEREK
The experiment in a line: Tryptophan fluorescence quenching interaction assay. It is filed as binding. The settings on record: N-terminal domain. As for the experimental part:
(§1) Two µM of protein in 40 mM Hepes buffer (pH 7.5), 100 mM KCl, was incubated for 30 min on ice with increasing concentrations of the compounds diluted in DMSO. […] The samples were excited at 280 nm and the emission was collected in the 300–400 nm range, in a 1.0 × 0.2 cm optical path cuvette, on an F-4500 Fluorescence Spectrophotometer (Hitachi). The fluorescence quenching was analysed at the maximum emission wavelength in the absence of ligand. The determination of the apparent dissociation constant (KDapp) was performed by fitting the fluorescence values obtained for each compound concentration according to a dose-response model through the Equation (3): (3) y = Fmin + (Fmax−Fmin)/(1+10^(logKD− [ligand])) where Fmin and Fmax are the minimum and maximum fluorescence intensity and [ligand] is the compound concentration used in the assay, according to the GraphPad Prism 5 software. The fluorescence intensities were corrected by inner filter effects as previously described.

Assay [5] addresses T2, hHsp90β (Homo sapiens, UniProt P08238).
T2 construct: made in house; host or cells: Escherichia coli BL21(DE3)
The description is as above. In kind it is binding. As for the experimental part:
as §1

The target in a further assay is LbHsp90 (Leishmania braziliensis, UniProt A4HL70). The assay is described as above. In kind it is binding. On the procedure: as §1
LbHsp90, sequence (A4HL70 entry or part of it): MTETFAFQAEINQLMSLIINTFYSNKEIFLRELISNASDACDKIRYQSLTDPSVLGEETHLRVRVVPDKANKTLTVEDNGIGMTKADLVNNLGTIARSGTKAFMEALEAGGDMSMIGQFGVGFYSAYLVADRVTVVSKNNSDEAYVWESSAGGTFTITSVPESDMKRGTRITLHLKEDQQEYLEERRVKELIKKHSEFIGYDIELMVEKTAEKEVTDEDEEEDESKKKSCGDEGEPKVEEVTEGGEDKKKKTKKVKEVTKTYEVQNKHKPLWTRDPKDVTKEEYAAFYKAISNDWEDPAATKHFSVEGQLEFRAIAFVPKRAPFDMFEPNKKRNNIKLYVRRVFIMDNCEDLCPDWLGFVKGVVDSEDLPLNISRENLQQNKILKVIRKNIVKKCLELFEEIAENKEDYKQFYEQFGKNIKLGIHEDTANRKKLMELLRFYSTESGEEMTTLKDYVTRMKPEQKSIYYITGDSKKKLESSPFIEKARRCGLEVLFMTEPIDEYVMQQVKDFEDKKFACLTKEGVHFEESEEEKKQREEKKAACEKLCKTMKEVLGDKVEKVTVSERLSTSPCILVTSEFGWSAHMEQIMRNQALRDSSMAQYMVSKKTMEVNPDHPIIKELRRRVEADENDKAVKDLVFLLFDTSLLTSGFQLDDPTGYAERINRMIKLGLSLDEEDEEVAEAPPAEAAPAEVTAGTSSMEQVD
Assay [6] has as its target T2, hHsp90β. The experiment in a line: ATPase activity inhibition assay (EnzChek Pi quantification). It is filed as biochemical. The settings on record: 50 μM compound, 2 μM enzyme, 2.5 mM ATP. On the procedure: The ATPase activity of LbHsp90 and hHsp90β was evaluated spectrophotometrically through inorganic phosphate (Pi) quantification following ATP hydrolysis, by the EnzChek™ assay kit (Invitrogen®) as previous described[31]^,[34]. Briefly, a 2 µM solution of LbHsp90 and hHsp90β enzymes was prepared in 150 mM NaCl, 5 mM MgCl2 and 20 mM Tris-HCl, pH 7.5, and incubated with ATP (concentration range 0–5 mM) for 60 min at 37 °C. Then, the chromogenic substrate 2-amino-6-mercapto 7-methyl purine riboside (MESG) and the purine nucleoside phosphorylase (PNP) were added and the resulting reaction mixture was incubated for 30 min at 37 °C. The assays were performed in a 96-well plate and kinetic parameters determined by Michaelis–Menten fitting using GraphPad Prism 6 software.
Initial screenings were performed using 50 μM compound concentration in a reaction mixture consisting of 2 μM enzyme and 2.5 mM ATP. After 1 h incubation at 37 °C, MESG and PNP were added. The amount of Pi was estimated after 30 min incubation at 37 °C. […] A compound concentration ranging from 1 to 75 μM was included in the reaction mixture and Pi quantification performed as previously described (measurements were performed in triplicate). IC50 values were determined by non-linear regression data fitting (using GraphPad Prism 6 software).

T2 sequence (P08238 whole entry): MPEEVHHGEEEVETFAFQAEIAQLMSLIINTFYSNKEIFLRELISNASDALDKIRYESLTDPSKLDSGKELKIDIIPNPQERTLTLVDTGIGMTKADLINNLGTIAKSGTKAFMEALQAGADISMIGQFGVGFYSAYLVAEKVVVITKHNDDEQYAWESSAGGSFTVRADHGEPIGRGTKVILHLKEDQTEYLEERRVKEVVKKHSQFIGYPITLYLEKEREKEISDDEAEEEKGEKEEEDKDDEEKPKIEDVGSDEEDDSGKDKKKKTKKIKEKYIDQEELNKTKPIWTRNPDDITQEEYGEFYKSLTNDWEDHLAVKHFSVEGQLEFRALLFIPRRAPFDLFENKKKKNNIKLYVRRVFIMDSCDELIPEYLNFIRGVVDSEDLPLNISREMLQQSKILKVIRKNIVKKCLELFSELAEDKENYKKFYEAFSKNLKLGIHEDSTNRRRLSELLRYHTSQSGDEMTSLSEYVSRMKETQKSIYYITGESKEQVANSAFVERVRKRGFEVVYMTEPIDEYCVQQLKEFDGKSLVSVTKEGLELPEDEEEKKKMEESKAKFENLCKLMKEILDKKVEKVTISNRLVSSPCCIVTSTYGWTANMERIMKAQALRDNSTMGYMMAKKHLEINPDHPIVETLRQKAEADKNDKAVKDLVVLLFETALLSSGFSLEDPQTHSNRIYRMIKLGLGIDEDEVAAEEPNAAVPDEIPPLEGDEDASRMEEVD

As to `C[C@@H]1[C@H](O)[C@@H](C)/C=C/C=C/C=C/C=C/C=C/C=C/C=C/[C@H](O[C@@H]2O[C@H](C)[C@@H](O)[C@H](N)[C@@H]2O)C[C@@H]2O[C@](O)(C[C@@H](O)C[C@@H](O)[C@H](O)CC[C@@H](O)C[C@@H](O)CC(=O)O[C@H]1C)C[C@H](O)[C@H]2C(=O)O` [Amphotericin, reference compound], the killing activity result in assay [1] (positive control, 100 μM/well, 72 h) is “more than 95%”.

In the case of `NC(=O)c1ccc(-c2nccc3occc23)cc1` [Glb01], the Cell viability entry in assay [1] (72 h) is on record as “No”. For the same compound, the Thermal shift entry in assay [2] is “No”.

With `CCC(=O)NCc1cccc(-c2ccnc3[nH]ccc23)c1` [Glb02], the Cell viability entry in assay [1] (72 h) was “No”. Further, the Thermal shift entry in assay [2] was “positive outcomes and Yes”.

With `NC(=O)Nc1cccc(C(=O)OCc2ccccc2C(F)(F)F)c1` [Glb04], the Cell viability result in assay [1] (72 h) is “No”. Further, in assay [2], the Thermal shift result is “No”.

Turning to `NC(=O)c1ccc(C(=O)N2CCc3ccccc32)cc1` [Glb05], the Cell viability result in assay [1] (72 h) is listed as “No”. The Thermal shift entry in assay [2] was “No”.

As for `CS(=O)(=O)N1CCN(c2ccc(C(N)=O)cc2)CC1` [Glb06], in assay [1] (72 h), the Cell viability entry is reported as “No”. In addition, the Thermal shift entry in assay [2] is “No”.

In the case of `NC(=O)c1cn(Cc2cccc3cccnc23)nc1-c1ccccc1` [Glb07], in assay [1] (72 h), the Cell viability entry was “No”. Also, the Thermal shift result in assay [2] was “No”.

For `CC(C)(C)c1cc(CSC(=N)N)cc(C(C)(C)C)c1O` [Glb11], the Cell viability entry in assay [1] (72 h) is on record as “No”. Also, the Thermal shift result in assay [2] is “positive outcomes and Yes”.

Regarding `Nc1nc(Cc2ccccc2)n[nH]1` [Glb12], the Cell viability entry in assay [1] (72 h) is given as “No”. Moreover, the Thermal shift entry in assay [2] is listed as “No”.

Turning to `Cn1cc(-c2ccc(F)cc2)c2nc[nH]c(=O)c21` [Glb13], in assay [1] (72 h), the Cell viability result was “No”. Besides, the Thermal shift entry in assay [2] was “No”.

With `N=C(N)NCc1cn(-c2ccccc2)nc1-c1ccccc1` [Glb14], the Cell viability entry in assay [1] (72 h) was “Yes”. In addition, the reduced cell viability result in assay [1] is “more than 60%”. Also, the half-inhibitory concentration (IC50) in assay [3] was 30 ± 1 µM; in assay [4] it was over 200 µM. Also, in assay [2], the Thermal shift entry was “No”.

Consider `N=C(N)NCc1ccc(Oc2ccc(F)cc2)cc1` [Glb16], for which the Cell viability result in assay [1] (72 h) is given as “Yes”. For the same compound, in assay [1], the reduced cell viability entry is given as “more than 60%”. The IC50 in assay [3] came to 12 ± 2 µM; in assay [4], 23 ± 1 µM. The Thermal shift entry in assay [2] was “positive outcomes and Yes”.

With `Cc1cccc(Oc2ccccc2CNC(=N)N)c1` [Glb17], the Cell viability entry in assay [1] (72 h) was “Yes”. In addition, the reduced cell viability entry in assay [1] is “more than 60%”. Besides, the “KDapp hHsp90βN” value on hHsp90βN is “Ambiguous^#”. Moreover, the “KDapp hHsp90β” value on hHsp90β [5] (full-length, tryptophan fluorescence quenching) is “Ambiguous^#”. Also, the “tryptophan fluorescence quenching (qualitative)” value at hHsp90β [5] (hHsp90β constructions) and on LbHsp90 (LbHsp90 constructions) was “did not induce tryptophan fluorescence quenching” each time. In addition, the IC50 in assay [3] was found to be 4 ± 1 µM; in assay [4], 58 ± 1 µM. In addition, the Thermal shift entry in assay [2] is listed as “No”.

`N=C(N)SCc1cc(=O)oc2cc3c(cc12)CCC3` [Glb18]: the Cell viability entry in assay [1] (72 h) is listed as “No”. In addition, the Thermal shift result in assay [2] was “No”.

`N=C(N)SCc1cccc(OCC(N)=O)c1` [Glb19]: in assay [1] (72 h), the Cell viability result is recorded as “No”. Moreover, the Thermal shift result in assay [2] was “No”.

Consider `COc1ccc(C2(CNC(=N)N)CC2)cc1` [Glb20], for which the Cell viability entry in assay [1] (72 h) was “No”. In addition, in assay [2], the Thermal shift result is on record as “No”.

`N=C(N)Nc1nc(-c2ccccc2)c(CC(=O)O)s1` [Glb21]: in assay [1] (72 h), the Cell viability entry is given as “No”. Besides, the Thermal shift result in assay [2] is given as “No”.

Turning to `N=C(N)SCc1ccc(C(=O)O)cc1` [Glb22], in assay [1] (72 h), the Cell viability result is “No”. For the same compound, in assay [2], the Thermal shift result was “No”.

On to `Cn1c(CSC(=N)N)c(Cl)c(=O)n1-c1ccccc1` [Glb24], for which the Cell viability entry in assay [1] (72 h) is listed as “No”. Further, in assay [2], the Thermal shift entry was “No”.

Regarding `Cc1cc(CSC(=N)N)cc(C(C)(C)C)n1` [Glb26], the Cell viability entry in assay [1] (72 h) is reported as “No”. Further, the Thermal shift result in assay [2] was “No”.

For the compound `N=C(N)NN=Cc1ccc2cccc(OCc3ccccc3)c2n1` [Glb27], in assay [1] (72 h), the Cell viability entry is reported as “Yes”. Besides, in assay [1], the reduced cell viability entry is “more than 60%”. The Kd on hHsp90βN (read-out: KDapp hHsp90βN) worked out at 6 ± 2 µM; on hHsp90β [5] (full-length, tryptophan fluorescence quenching, read-out: KDapp hHsp90β), 5 ± 4 µM; on LbHsp90 (full-length, tryptophan fluorescence quenching, read-out: KDapp LbHsp90) it was 7 ± 1 µM. Moreover, the half-inhibitory concentration (IC50) in assay [3] came out at 11 ± 1 µM; in assay [4], 13 ± 2 µM. Moreover, the “percentage inhibition of hHsp90β ATPase activity” value on hHsp90β [6] was “lower than 60%”. The Thermal shift entry in assay [2] was “positive outcomes and Yes”.

Consider `N=C(N)NCc1nn(Cc2ccccc2)c(=O)c2ccccc12` [Glb28], for which the Thermal shift entry in assay [2] is given as “No”.

`C[C@@H]1C[C@H]2O[C@@H]2/C=C\C=C\C(=O)Cc2c(Cl)c(O)cc(O)c2C(=O)O1` [RDC, Radicicol, reference compound]: the ΔTm in assay [2] (100 µM positive controls, protein stabilisation) was over 2.0 °C.
